Values quoted from earlier work as cited in patent US6194433A, “Sexual dysfunction in females” (Cutler; Neal R., priority 1998, dated 2001).

Key:
[1] = not given; remark: listed apart in the source
phosphodiesterase III = conditions: Gristwood et al., Br. J. Pharmacol. 105:985 (1992)
phosphodiesterase = conditions: Frodsham et al., Eur. J. Pharmacol. 211:383 (1992)
[2] = Kelso et al., J Cardiovasc. Pharmacol. 25:376 (1995)
[3] = Perreault et al., Br. J Pharmacol. 106:511 (1992)
[4] = following coronary artery ligation; Jones et al., Br. J. Pharmacol. 108:1111 (1993)

In the case of `Cn1cc([S+](C)[O-])c(=O)c2ccc(F)cc21` (stereo not shown) [flosequinan, 7-fluoro-1-methyl-3-methylsulphinyl-4-quinolone], the “time of peak plasma concentrations of flosequinan” value (following oral administration) is given as 1 to 2 h, the mean absolute bioavailability (oral, single dose of fifty milligrams) is given as 72% and the “solubility in organic solvents” value ([1]; many organic solvents) is given as “soluble in many organic solvents”. The water solubility ([1]; water) was “water soluble”, the “inhibition of phosphodiesterase III” value (phosphodiesterase III) was “selective inhibitor of phosphodiesterase III” and the “phosphodiesterase inhibition as relevant to efficacy in heart failure” value (phosphodiesterase) was “questionable”. For the same compound, the “usefulness in the treatment of heart failure” value [2] was “useful to some degree”, the “effect in patients with end-stage failure” value [3] was “little effect” and the “effect on mortality or arrhythmias” value [4] was “does not affect mortality or arrhythmias”.

For `Cn1cc(S(C)(=O)=O)c(=O)c2ccc(F)cc21` [metabolite], the “time of peak metabolite plasma levels” value (following oral dosage of flosequinan) is listed as “about seven”.
